According to ChEMBL document CHEMBL3044553, “Amino steroids as antimalarial agents” (2008):
≈ marks a conversion by molar mass, not a printed value.

The compounds below were run on Plasmodium falciparum (assay: Antimalarial activity against chloroquine-sensitive Plasmodium falciparum NF54 assessed as inhibition of maturation of rings into schizonts stage).
Type: functional

Compound | MIC
CCCCNCC[C@@H](C)[C@H]1CC[C@H]2[C@@H]3CC[C@@H]4C[C@H](OC(C)=O)CC[C@]4(C)[C@H]3C[C@H](OC(C)=O)[C@]12C | > 50 µg/mL
CC(=O)O[C@@H]1CC[C@@]2(C)[C@H](CC[C@@H]3[C@@H]2C[C@H](OC(C)=O)[C@]2(C)[C@@H]([C@H](C)CCNC(C)C)CC[C@@H]32)C1 | > 50 µg/mL
CC(=O)O[C@@H]1CC[C@@]2(C)[C@H](CC[C@@H]3[C@@H]2C[C@H](OC(C)=O)[C@]2(C)[C@@H]([C@H](C)CCNCc4ccccc4)CC[C@@H]32)C1 | 50 µg/mL (≈ 93 µM)
CC(=O)O[C@@H]1CC[C@@]2(C)[C@H](CC[C@@H]3[C@@H]2C[C@H](OC(C)=O)[C@]2(C)[C@@H]([C@H](C)CNCCCNc4ccnc5cc(Cl)ccc45)CC[C@@H]32)C1 | 0.5 µg/mL (≈ 0.766 µM)
CCCCNC[C@@H](C)[C@H]1CC[C@H]2[C@@H]3CC[C@@H]4C[C@H](OC(C)=O)CC[C@]4(C)[C@H]3C[C@H](OC(C)=O)[C@]12C | > 10 µg/mL
CC(=O)O[C@@H]1CC[C@@]2(C)[C@H](CC[C@@H]3[C@@H]2C[C@H](OC(C)=O)[C@]2(C)[C@@H]([C@H](C)CNC(C)C)CC[C@@H]32)C1 | 10 µg/mL (≈ 21 µM)
CC(=O)O[C@@H]1CC[C@@]2(C)[C@H](CC[C@@H]3[C@@H]2C[C@H](OC(C)=O)[C@]2(C)[C@@H]([C@H](C)CNCc4ccccc4)CC[C@@H]32)C1 | 2 µg/mL (≈ 3.82 µM)

More lines, now with the values ahead:

MIC | Compound
1 µg/mL (≈ 1.5 µM) | CC(=O)O[C@@H]1CC[C@@]2(C)[C@H](CC[C@@H]3[C@@H]2C[C@H](OC(C)=O)[C@]2(C)[C@@H]([C@H](C)CNCCCCNc4ccnc5cc(Cl)ccc45)CC[C@@H]32)C1
10 µg/mL (≈ 42.4 µM) | NCCCNc1ccnc2cc(Cl)ccc12
2 µg/mL (≈ 8.01 µM) | NCCCCNc1ccnc2cc(Cl)ccc12
0.04 µg/mL (≈ 0.125 µM) | CCN(CC)CCCC(C)Nc1ccnc2cc(Cl)ccc12 (stereo unspecified) [CHLOROQUINE]
